Test results as given in patent US20100081632A1, “High-content and high throughput assays for identification of lipid-regulating pathways, and novel therapeutic agents for lipid disorders” (Odyssey Thera, Inc., priority 2008, published 2010).

Legend:
PCSK9/LDLR complex = test: PCSK9/LDLR protein complementation assay (PCA) in transfected HEK293 cells; type: cell-based, human
Protocol: In one of the embodiments of the invention, the cell-based assay consists of transfected cDNAs encoding full-length PCSK9 and LDL receptor, each sequence linked in-frame to rationally designed fragments of a variant of green fluorescent protein. These two plasmid constructs were co-expressed in human HEK cells plated in 384-well poly-lysine coated plates. After 24-48 hours of incubation, drugs (or vehicle controls) were added to the media, and the existence and localization of PCSK9/LDL receptor complexes was quantified on an Opera automated confocal fluorescence microscopy platform (Perkin Elmer). Images were subjected to automated image analysis, and results quantified and subjected to statistical analysis.
HEK 293T cells were seeded in normal growth media containing DMEM and 10% FBS at 1.5×10^4 in PDL-coated 96-well plates 24 hours prior to transfection. Cells were transfected with 50 ng of each construct DNA per well with Fugene 6, using conditions recommended by the manufacturer. Cells were allowed to express the construct pairs for 24- or 48 h, then the cells were simultaneously fixed and stained with either a 1:300 dilution of Hoescht 33342 (Molecular Probes, Eugene, Oreg.) or a 1:1000 dilution of Draq5 (Biostatus, Shepshed, Leicestershire, U.K.) in 4% formaldehyde for 15 minutes at room temperature. The cells were washed to remove fixative, and overlaid with a small volume of Hank's Buffered Salt Solution. Images were acquired on a Discovery-1 (Molecular Devices) epifluorescence microscope using the 20× objective, and DAPI and FITC filter sets. (with excitation at 350 and 488 nm wave lengths) or on an Opera (Perkin Elmer) confocal microscope using the 20× water objective with the following excitation and emission settings: Ex 488 nm/Em 535 nm (YFP) and Ex 635 nm/Em 640 nm (Draq5).
To test for in vitro PCSK9 function and activity, we developed a protein complementation assay (PCA) with PCSK9-IFP2 and the LDL-IFP1 receptor (PCSK9/LDLR). Expression of wild type PCSK9-IFP2 in transfected HEK293 cells was confirmed by Western blot using an antibody against YFP (FIG. 2). Cotranfection of HEK cells with increasing ratios of PCSK9-IFP2 and LDLR-IFP1 DNA constructs results in increased PCA signal (FIG. 3) but not when each construct is expressed alone. The intracellular localization of the wild-type PCSK9-IFP2/LDLR-IFP1 PCA interaction is similar to the known localization of wild type PCSK9 in the endoplasmic reticulum (ER) and post-ER compartments in various cell types (20, 21). The PCA signal for the PCSK9-IFP2/LDLR-IFP1 pair appears to be localized to multiple intracellular trafficking sites including the ER, endosomes and the cell surface.
In order to test the viability of using the PCSK9-IFP2/LDLR-IFP1 PCA as a drug discovery tool, we tested a drug plate containing 50 known drugs at 3 doses in the assay (Table 10) as well as several protein kinase inhibitors (representative compounds are depicted in Table 11). […] We observed the following effects of known compounds on the PCSK9/LDLR complex:
A collection of small molecular weight compounds was screened. […] To expand on this observation, we characterized the effects of a larger panel of kinase inhibitors on the PCSK9/LDLr complex. 47 compounds representing a broad range of known receptor tyrosine and serine-threonine kinase inhibitors were assessed (table 2). A subset was identified that had inhibitory effects on the PCSK9/LDLr complex (degree of assay inhibition relative to control is indicated by “% control”, Table 2).

HepG2 cells = test: LDL uptake in HepG2 cells (human LDL conjugated to DyLight 549); type: cell-based; conditions: for x-fold increase (hepatic LDL uptake): HepG2
Source text: The assay uses human LDL conjugated to DyLight™ 549 as a fluorescent probe for detection of LDL uptake into HepG2 cells.
We assessED whether compounds that inhibit the PCSK9/LDLr assay would have activity on LDL uptake and metabolism in a relevant cell type. PCSK9 is thought to be a negative regulator of LDLr. Thus, we predicted that compounds inhibiting the PCSK9 PCA signal would increase LDL receptor expression and LDL uptake. An assay using human LDL conjugated to DyLight™ 549 as a fluorescent probe for detection of LDL uptake into cultured human hepatocytes. A separate assay, using an LDL receptor-specific polyclonal antibody and a DyLight™ 488-conjugated secondary antibody, was also performed to localize LDL receptors
Quantitation of the increased LDL uptake of these and other kinase inhibitors targeting Akt, mTOR, p38, GSK3 and VEGF is shown in Table 4.

CO[C@H]1C[C@@H]2CC[C@@H](C)[C@@](O)(O2)C(=O)C(=O)N2CCCC[C@H]2C(=O)O[C@H]([C@H](C)C[C@@H]2CC[C@H](n3cnnn3)[C@H](OC)C2)CC(=O)[C@H](C)/C=C(\C)[C@@H](O)[C@@H](OC)C(=O)[C@H](C)C[C@H](C)/C=C/C=C/C=C/1C [Zotarolimus]
% Control (PCSK9/LDLr PCA) (PCSK9/LDLR complex; dose 10 μM): 37%

CNc1cc2c(Nc3cccc(Br)c3)ncnc2cn1 [PD-158780]
x-fold increase (LDL uptake in Hepg2 cells) (HepG2 cells; dose 0.3 μM): 1.3 x-fold | x-fold increase (hepatic LDL uptake) (HepG2 cells; dose 0.3 µM): 1.3 x-fold

COc1cc2ncnc(Nc3ccc(F)c(Cl)c3)c2cc1OCCCN1CCOCC1 [Gefitinib]
% Control (PCSK9/LDLr PCA) (PCSK9/LDLR complex; dose 100 μM): 53%

Oc1ccc(-c2nc(-c3ccc(F)cc3)c(-c3ccncc3)[nH]2)cc1 [SB 202190]
x-fold increase (LDL uptake in Hepg2 cells) (HepG2 cells; dose 1 μM): 2.7 x-fold | x-fold increase (hepatic LDL uptake) (HepG2 cells; dose 1 µM): 2.7 x-fold

CN(C)CCCN1c2ccccc2CCc2ccccc21 [Imipramine]
% Control (PCSK9/LDLr PCA) (PCSK9/LDLR complex; dose 150 μM): 46%

O=NN(CCCl)C(=O)NC1CCCCC1 [Lomustine]
% Control (PCSK9/LDLr PCA) (PCSK9/LDLR complex; dose 50 μM): 50% | % Control (PCSK9/LDLr PCA) (PCSK9/LDLR complex; dose 150 μM): 54%

CS(=O)(=O)CCNCc1ccc(-c2ccc3ncnc(Nc4ccc(OCc5cccc(F)c5)c(Cl)c4)c3c2)o1 [Lapatinib]
effect on LDL uptake (in words) (HepG2 cells; HepG2, 10 μM): dramatic increase in LDL uptake | x-fold increase (LDL uptake in Hepg2 cells) (HepG2 cells; dose 10 μM): 1.8 x-fold | x-fold increase (hepatic LDL uptake) (HepG2 cells; dose 10 µM): 1.8 x-fold | x-fold increase (LDL uptake in Hepg2 cells) (HepG2 cells; dose 30 μM): 1.9 x-fold | x-fold increase (hepatic LDL uptake) (HepG2 cells; dose 30 µM): 1.9 x-fold

COc1ccnc(C[S+]([O-])c2nc3ccc(OC(F)F)cc3[nH]2)c1OC (stereo not shown) [Pantoprazole]
% Control (PCSK9/LDLr PCA) (PCSK9/LDLR complex; dose 200 μM): 36%

CC(C)(C)c1ccc(C(O)CCCN2CCC(C(O)(c3ccccc3)c3ccccc3)CC2)cc1 (stereo not shown) [Terfenadine]
% Control (PCSK9/LDLr PCA) (PCSK9/LDLR complex; dose 10 μM): 59%

COC[C@H]1OC(=O)c2coc3c2[C@@]1(C)C1=C(C3=O)[C@@H]2CCC(=O)[C@@]2(C)C[C@H]1OC(C)=O [Wortmannin]
% Control (PCSK9/LDLr PCA) (PCSK9/LDLR complex; dose 1.5 μM): 63%

O=C1C(SCCO)=C(SCCO)C(=O)N1c1ccc(-c2ccccc2)cc1 [PM20]
% Control (PCSK9/LDLr PCA) (PCSK9/LDLR complex; dose 10 μM): 53%

C=C1CC[C@@H]2[C@](C)(CO)[C@H](O)CC[C@@]2(C)[C@@H]1C/C=C1/C(=O)OC[C@H]1O [Andrographolide]
% Control (PCSK9/LDLr PCA) (PCSK9/LDLR complex; dose 100 μM): 43%

O=C1NC(=O)C(=Cc2ccc(-c3ccc(F)cc3O)o2)S1 [PI3K gamma/CKII inhibitor, (5-(4-Fluoro-2-hydroxyphenyl)furan-2-ylmethylene)thiazolidine-2,4-dione]
% Control (PCSK9/LDLr PCA) (PCSK9/LDLR complex; dose 3 μM): 57% | % Control (PCSK9/LDLr PCA) (PCSK9/LDLR complex; dose 10 μM): 47%

C=C1CC[C@@H]2[C@](C)(CO)CCC[C@@]2(C)[C@@H]1CCC1=CCOC1=O [Andrograpanin]
% Control (PCSK9/LDLr PCA) (PCSK9/LDLR complex; dose 100 μM): 40%

CCc1cc(-c2oncc2-c2ccc(OC)cc2)c(O)cc1OC [KRIBB3]
x-fold increase (LDL uptake in Hepg2 cells) (HepG2 cells; dose 1 μM): 1.3 x-fold | x-fold increase (hepatic LDL uptake) (HepG2 cells; dose 1 µM): 1.3 x-fold | x-fold increase (LDL uptake in Hepg2 cells) (HepG2 cells; dose 3 μM): 1.6 x-fold | x-fold increase (hepatic LDL uptake) (HepG2 cells; dose 3 µM): 1.6 x-fold

CCN(CC)CCCCN1c2ccccc2Oc2ccc(Cl)cc21.Cl [Akt Inhibitor X, 10-(4′-(N-diethylamino)butyl)-2-chlorophenoxazine, HCl]
x-fold increase (LDL uptake in Hepg2 cells) (HepG2 cells; dose 1 μM): 1.4 x-fold | x-fold increase (hepatic LDL uptake) (HepG2 cells; dose 1 µM): 1.4 x-fold | x-fold increase (LDL uptake in Hepg2 cells) (HepG2 cells; dose 3 μM): 1.7 x-fold | x-fold increase (hepatic LDL uptake) (HepG2 cells; dose 3 µM): 1.7 x-fold

CC[n+]1c(/C=C/N(C)c2ccccc2)n(-c2ccccc2)c2ccc(-c3nc4ccccc4s3)cc21 [Akt Inhibitor IV, 5-(2-Benzothiazolyl)-3-ethyl-2-[2-(methylphenylamino)ethenyl]-1-phenyl-1H-benzimidazolium iodide]
% Control (PCSK9/LDLr PCA) (PCSK9/LDLR complex; dose 1 μM): 65% | % Control (PCSK9/LDLr PCA) (PCSK9/LDLR complex; dose 3 μM): 40% | % Control (PCSK9/LDLr PCA) (PCSK9/LDLR complex; dose 10 μM): 56%

CN[C@@H]1C[C@H]2O[C@@](C)([C@@H]1OC)n1c3ccccc3c3c4c(c5c6ccccc6n2c5c31)C(=O)NC4 [Staurosporine]
% Control (PCSK9/LDLr PCA) (PCSK9/LDLR complex; dose 1 μM): 34%

CCOC(=O)N1CCC(=C2c3ccc(Cl)cc3CCc3cccnc32)CC1 [Loratidine]
% Control (PCSK9/LDLr PCA) (PCSK9/LDLR complex; dose 30 μM): 59%

C=C1[C@@H](C)[C@H]2[C@H](Cc3ccccc3)NC(=O)[C@]23OC(=O)/C=C/[C@H](O)CCC[C@@H](C)C/C=C/[C@H]3[C@@H]1O [Cytochalasin B]
% Control (PCSK9/LDLr PCA) (PCSK9/LDLR complex; dose 2 μM): 53%

COc1cc2ncnc(Nc3cccc(Br)c3)c2cc1OC [PD-153035]
x-fold increase (LDL uptake in Hepg2 cells) (HepG2 cells; dose 0.2 μM): 1.3 x-fold | x-fold increase (hepatic LDL uptake) (HepG2 cells; dose 0.2 µM): 1.3 x-fold

O=C1NC(=O)C(c2ccccc2[N+](=O)[O-])=C1Nc1ccc(O)c(Cl)c1 [SB 415286]
x-fold increase (LDL uptake in Hepg2 cells) (HepG2 cells; dose 25 μM): 1.6 x-fold | x-fold increase (hepatic LDL uptake) (HepG2 cells; dose 25 µM): 1.6 x-fold

CN(C)CCCN1c2ccccc2CCc2ccc(Cl)cc21 [Clomipramine]
% Control (PCSK9/LDLr PCA) (PCSK9/LDLR complex; dose 50 μM): 46%

CN[C@H]1CC[C@@H](c2ccc(Cl)c(Cl)c2)c2ccccc21 [Sertraline]
% Control (PCSK9/LDLr PCA) (PCSK9/LDLR complex; dose 100 μM): 46%

Cc1cn(-c2cc(NC(=O)c3ccc(C)c(Nc4nccc(-c5cccnc5)n4)c3)cc(C(F)(F)F)c2)cn1 [Nilotinib]
effect on formation of PCSK9/LDLR complexes / PCA signal (in words) (PCSK9/LDLR complex): inhibit the formation of PCSK9/LDLR complexes | % Control (PCSK9/LDLr PCA) (PCSK9/LDLR complex; dose 3 μM): 48% | % Control (PCSK9/LDLr PCA) (PCSK9/LDLR complex; dose 10 μM): 65%

Cc1c(OCC(F)(F)F)ccnc1C[S+]([O-])c1nc2ccccc2[nH]1 (stereo not shown) [Lanzoprazole]
effect on formation of PCSK9/LDLR complexes / PCA signal (in words) (PCSK9/LDLR complex): inhibit the formation of PCSK9/LDLR complexes | % Control (PCSK9/LDLr PCA) (PCSK9/LDLR complex; dose 100 μM): 53%

CC/C(=C(\c1ccccc1)c1ccc(OCCN(C)C)cc1)c1ccccc1 [Tamoxifen]
% Control (PCSK9/LDLr PCA) (PCSK9/LDLR complex; dose 30 μM): 53%

Oc1cccc(-c2nc(N3CCOCC3)c3sccc3n2)c1 [PI 3-K alpha Inhibitor IV, 3-(4-Morpholinothieno[3,2-d]pyrimidin-2-yl)phenol]
% Control (PCSK9/LDLr PCA) (PCSK9/LDLR complex; dose 30 μM): 46%

C[S+]([O-])c1ccc(-c2nc(-c3ccc(F)cc3)c(-c3ccncc3)[nH]2)cc1 (stereo not shown) [SB 203580]
x-fold increase (LDL uptake in Hepg2 cells) (HepG2 cells; dose 3 μM): 3.0 x-fold | x-fold increase (hepatic LDL uptake) (HepG2 cells; dose 3 µM): 3.0 x-fold

CC[C@H](CO)Nc1nc(NCc2ccccc2)c2ncn(C(C)C)c2n1 [Roscovitine]
% Control (PCSK9/LDLr PCA) (PCSK9/LDLR complex; dose 40 μM): 54%

CN(C)CCC=C1c2ccccc2CCc2ccccc21 [Amitryptyline]
% Control (PCSK9/LDLr PCA) (PCSK9/LDLR complex; dose 100 μM): 48%

O=c1cc(N2CCNCC2)oc2c(-c3ccccc3)cccc12 [LY 303511]
x-fold increase (LDL uptake in Hepg2 cells) (HepG2 cells; dose 3 μM): 1.4 x-fold | x-fold increase (LDL uptake in Hepg2 cells) (HepG2 cells; dose 30 μM): 2.1 x-fold | x-fold increase (hepatic LDL uptake) (HepG2 cells; dose 30 µM): 2.1 x-fold | x-fold increase (hepatic LDL uptake) (HepG2 cells; dose 3 µM): 1.4 x-fold

B1: Oncostatin M (OSM): regulator of hepatic LDL uptake, purported target Gp130/OSMR/LIFR (protein, UniProt P13725 26-221, looked up)
Oncostatin-M: AAIGSCSKEYRVLLGQLQKQTDLMQDTSRLLDPYIRIQGLDVPKLREHCRERPGAFPSEETLRGLGRRGFLQTLNATLGCVLHRLADLEQRLPKAQDLERSGLNIEDLEKLQMARPNILGLRNNIYCMAQLLDNSDTAEPTKAGRGASQPPTPTPASDAFQRKLEGCRFLHGYHRFMHSVGRVFSKWGESPNRSRR
x-fold increase (hepatic LDL uptake) (HepG2 cells; dose 30 ng/ml): 4.2 x-fold
